# Results as given in patent publication US20060199819A1, “Inhibition of cyclooxygenase-2 activity” (Celgene Corporation, priority 2000, published 2006).
# Key:
# cyclooxygenase-2 = assay: LPS-mediated induction of cyclooxygenase-2 in macrophages (RAW 264.7 cells); format: cell-based; settings: macrophages in RAW 264.7 cells; as little as 50 μM
# Description: (§1) Cyclooxygenase-2, the rate-limiting enzyme in prostaglandin biosynthesis, is expressed in tumor associated macrophages. Because prostaglandins, notable PGE2, are important mediators of inflammatory response and angiogenesis, inhibition of their biosynthesis can be used to combat these effects. Inhibition of the cyclooxygenase-2 protein by a test compound can be conveniently observed in cells in which induction of the protein has been induced by lipopolysaccharide (LPS). Thus it is known that LPS enhances cyclooxygenase-2 transcription and this effect thus can be used as convenient model for evaluating cyclooxygenase-2 inhibition.
# (§2) In one experiment, LPS-mediated induction of cyclooxygenase-2, as well as PGE2 biosynthesis, in macrophages in RAW 264.7 cells was blocked by as little as 50 μM of 3-phthalimido-2,6-dioxopiperidine. It appears, however, that LPS-enhanced cyclooxy-genase-2 transcription is not itself effected by the amide or imide. That is, the amide or imide has no effect on the induction of cyclooxygenase-2 by LPS. On the other hand, the amide or imide enhances the degradation of cyclooxygenase-2 messenger RNA. Consequently while not wishing to be bound by any theory, it appears the inhibitory effect of the amide or imide operates on the activity of cyclooxygenase-2 by some post-transcriptional mechanism.
# PGE2 biosynthesis = assay: LPS-mediated PGE2 biosynthesis in macrophages (RAW 264.7 cells); format: cell-based; settings: macrophages in RAW 264.7 cells, as little as 50 μM
# Description: as §1, §2
smiles,measurement,setting,value
"O=C1CCC(N2C(=O)c3ccccc3C2=O)C(=O)N1 (centres unmarked) [3-phthalimido-2,6-dioxopiperidine]",LPS-mediated induction of cyclooxygenase-2,cyclooxygenase-2,blocked
same,PGE2 biosynthesis,PGE2 biosynthesis,blocked
